Data published in patent publication US20260306639A1, “DEGRADER FOR DECOMPOSING CMET PROTEIN, AND PHARMACEUTICAL COMPOSITION COMPRISING SAME” (INNOCURE THERAPEUTICS, INC., priority 2022, published 2026).

What was measured:
c-MET [1] = assay: c-MET protein degradation (Simple Western), SNU-638 cells; assay type: cell-based, human; settings: SNU-638 gastric cancer cells, c-MET overexpressing; 24 hours
Procedure: (§1) In order to assess the resolution of the compound of the present invention for c-MET expressed in cells, cells were dispensed in a 12-well plate at a concentration of 2×10^5 cells/well, and then gastric cancer cell lines were treated with samples for 24 hours and lung cancer cell lines were treated for 48 hours. Cell lysates were collected using a scraper on ice, centrifuged at 4° C. 15,000 rpm for 30 min to obtain a protein-containing supernatant. Protein expression was then measured using the Simple Western Automated Western Blot System Abby instrument using 3 μg of protein for each sample. SDS and heat-induced denaturation proteins were separated by molecular weight, attached to capillary, reacted with anti-c-MET or anti-GAPDH antibodies, which are primary antibodies, and then reacted with HRP-conjugated secondary antibodies, and analyzed the protein expression signal with compass software. Protein expression was normalized based on the expression value of GAPDH, and protein development in each sample was measured as a percentage (%) based on 100% of samples treated with 0.1% DMSO carriers, and DC50 (concentration of a compound where 50% protein inhibition is achieved) was calculated from the change in protein expression amount due to compound treatment.

c-MET [2] = assay: c-MET protein degradation (Simple Western), EBC-1 cells; assay type: cell-based, human; settings: EBC-1 lung cancer cells, c-MET overexpressing; 48 hours
Procedure: as §1

MKN-45 = assay: cell viability / antiproliferative activity (WST-8), MKN-45 cells; assay type: cell-based; settings: Homo sapiens; MKN-45 gastric cancer cells; 72 hours
Procedure: c-MET overexpressing human gastric cancer cell lines [MKN45] and [SNU638] were cultured in RPMI medium with 10% fetal bovine serum, penicillin (100 U/ml), and streptomycin (100 mg/ml), and c-MET exon 14 skipping mutant human gastric cancer cell lines [Hs746T] were cultured in DMEM media. The c-MET overexpressing human lung cancer cell line EBC-1 was cultured in MEM media with the addition of 10% fetal bovine serum, penicillin (100 U/ml), and streptomycin (100 mg/ml). […] The compound synthesized in accordance with the present invention was prepared with a raw material solution of 10 mM dissolved in DMSO (dimethyl sulfoxide), and was sequentially diluted and processed.
In order to observe the inhibitory activity on cell growth, cells were dispensed in a 96-well plate at a concentration of 5,000 cells/well, and then treated with the compound prepared at various concentrations for 72 hours. The viability of the cells was calculated using GraphicPad Prism 8.0 software by adding 10 ml per well of WST-8 (water soluble tetrazolium salt) sample, which reacts with dehydrogenase present in the electron transport system of mitochondria to produce formazon, incubated for 2 hours, and measured absorbance at 450 nm.

c-MET [3] = assay: c-MET protein degradation (Simple Western), MKN-45 cells; assay type: cell-based, human; settings: MKN-45 gastric cancer cells, c-MET overexpressing; 24 hours
Procedure: as §1

Row | DC50 (c-MET [1]) [nM] | DC50 (c-MET [2]) [nM] | IC50 (MKN-45) [nM] | DC50 (c-MET [3]) [nM] | SMILES
1 | < 100 | < 100 |  |  | N#Cc1cccc(-c2ccc(=O)n(Cc3cccc(-c4ncc(OCC5CCN(C(=O)CN6CCN(c7ccc(NC8CCC(=O)NC8=O)cc7F)CC6)CC5)cn4)c3)n2)c1 (centres unmarked) [ICT-0001494]
2 | < 100 | < 100 |  |  | Cn1cc(-c2cnc3c(nnn3C[C@@H]3CN(c4ncc(-c5ccc(CN6CCN(CC(=O)N7CCN(c8ccc(NC9CCC(=O)NC9=O)cc8F)CC7)CC6)cc5)cn4)CCO3)n2)cn1 (some centres unmarked) [ICT-0001439]
3 |  |  | < 100 |  | Cc1nn(C2CCC(=O)NC2=O)c(=O)c2cc(N3CCN(CC4CCN(C(=O)CN5CCC(COc6cnc(-c7cccc(Cn8nc(-c9cccc(C#N)c9)ccc8=O)c7)nc6)CC5)CC4)CC3)c(F)cc12 (centres unmarked) [ICT-0001231, 3-(1-(3-(5-((1-(2-(4-(4-(4-(3-(2,6-dioxopiperidine-3-yl)-7-fluoro-1-methyl-4-oxo-3,4-dihydrophthalazine-6-yl)piperazine-1-il)methyl)piperidine-1-il)-2-oxoethyl)piperidine-4-yl)methoxy)pyrimidine-2-yl)benzyl)6-oxo-1,6-dihydropyridazine-3-yl)benzonitrile]
4 | < 100 | < 100 |  | < 100 | N#Cc1cccc(-c2ccc(=O)n(Cc3cccc(-c4ncc(OCC5CCN(CC(=O)N6CC(N7CCN(c8ccc9c(=O)n(C%10CCC(=O)NC%10=O)ncc9c8)CC7)C6)CC5)cn4)c3)n2)c1 (centres unmarked) [ICT-0001232]
5 | < 100 |  |  | < 100 | Cc1nn(C2CCC(=O)NC2=O)c(=O)c2ccc(N3CCN(C(=O)C4CCN(CC(=O)N5CCC(COc6cnc(-c7cccc(Cn8nc(-c9cccc(C#N)c9)ccc8=O)c7)nc6)CC5)CC4)CC3)cc12 (centres unmarked) [ICT-0001218]
6 | > 1000 | < 100 |  |  | N#Cc1cccc(-c2ccc(=O)n(Cc3cccc(-c4ncc(-c5cccc(CN6CCN(c7ccc(C8CCC(=O)NC8=O)cn7)CC6)c5)cn4)c3)n2)c1 (centres unmarked) [ICT-0001449]
7 | 100 to 1000 | < 100 |  |  | N#Cc1cccc(-c2ccc(=O)n(Cc3cccc(-c4ncc(-c5cccc(CN6CCC(CN7CCN(c8ccc(NC9CCC(=O)NC9=O)cc8F)CC7)CC6)c5)cn4)c3)n2)c1 (centres unmarked) [ICT-0001450]
8 |  | < 100 |  |  | N#Cc1cccc(-c2ccc(=O)n(Cc3cccc(-c4ncc(OCC5CCN(CC(=O)N6CCC(CN7CCN(c8ccc(NC9CCC(=O)NC9=O)cc8F)CC7)CC6)CC5)cn4)c3)n2)c1 (centres unmarked) [ICT-0001447, 3-(1-{[3-(5-{[1-(2-{4-[(4-{4-[(2,6-dioxopiperidin-3-yl)amino]-2-fluorophenyl}piperazine-1-yl)methyl]piperidine-1-yl}-2-oxoethyl)piperidine-4-yl]methoxy}pyrimidine-2-yl)phenyl]methyl}-6-oxo-1,6-dihydropyridazine-3-yl)benzonitrile]
9 |  | > 1000 |  | < 100 | N#Cc1cccc(-c2ccc(=O)n(Cc3cccc(-c4ncc(OCC5CCN(CCN6CCN(c7ccc8c(=O)n(C9CCC(=O)NC9=O)ncc8c7)CC6)CC5)cn4)c3)n2)c1 (centres unmarked) [ICT-0001276, 3-(1-{[3-(5-{[1-(2-{4-[2-(2,6-dioxopiperidin-3-yl)-1-oxo-1,2-dihydropetalazine-6-yl]piperazine-1-il}ethyl)piperidine-4-il]methoxy}pyrimidine-2-yl)phenyl]methyl}-6-oxo-1,6-dihydropyridazine-3-yl)benzonitrile]
10 |  | < 100 |  |  | N#Cc1cccc(-c2ccc(=O)n(Cc3cccc(-c4ncc(OCC5CCN(CC(=O)N6CCN(CC7CCN(c8ccc(NC9CCC(=O)NC9=O)cc8F)CC7)CC6)CC5)cn4)c3)n2)c1 (centres unmarked) [ICT-0001468, 3-(1-{[3-(5-{[1-(2-{4-[(1-{4-[(2,6-dioxopiperidin-3-yl)amino]-2-fluorophenyl}piperidine-4-yl)methyl]piperazine-1-yl}-2-oxoethyl)piperidine-4-yl]methoxy}pyrimidine-2-yl)phenyl]methyl}-6-oxo-1,6-dihydropyridazine-3-yl)benzonitrile]
11 | > 1000 |  |  | < 100 | Cc1nn(C2CCC(=O)NC2=O)c(=O)c2c(NCC(=O)N3CCC(CN4CCC(COc5cnc(-c6cccc(Cn7nc(-c8cccc(C#N)c8)ccc7=O)c6)nc5)CC4)CC3)cccc12 (centres unmarked) [ICT-0000980]
12 |  | 100 to 1000 |  | < 100 | Cc1nn(C2CCC(=O)NC2=O)c(=O)c2ccc(N3CCN(C(=O)C4CN(CC(=O)N5CCC(COc6cnc(-c7cccc(Cn8nc(-c9cccc(C#N)c9)ccc8=O)c7)nc6)CC5)C4)CC3)cc12 (centres unmarked) [ICT-0001257]
13 | < 100 | < 100 |  |  | N#Cc1cccc(-c2ccc(=O)n(Cc3cccc(-c4ncc(OCC5CCN(c6ccc(NC7CCC(=O)NC7=O)cc6F)CC5)cn4)c3)n2)c1 (centres unmarked) [ICT-0001383]
14 | > 1000 |  |  |  | Cc1nn(C2CCC(=O)NC2=O)c(=O)c2ccc(N3CCN(C4CN(CCN5CCC(COc6cnc(-c7cccc(Cn8nc(-c9cccc(C#N)c9)ccc8=O)c7)nc6)CC5)C4)CC3)cc12 (centres unmarked) [ICT-0001325]
15 | > 1000 |  |  |  | Cc1nn(C2CCC(=O)NC2=O)c(=O)c2cc(N3CCN(CC4CCN(CCN5CCC(COc6cnc(-c7cccc(Cn8nc(-c9cccc(C#N)c9)ccc8=O)c7)nc6)CC5)CC4)CC3)c(F)cc12 (centres unmarked) [ICT-0001326]
16 |  | > 1000 |  | 100 to 1000 | Cc1nn(C2CCC(=O)NC2=O)c(=O)c2cc(N3CCN(CCN4CCC(COc5cnc(-c6cccc(Cn7nc(-c8cccc(C#N)c8)ccc7=O)c6)nc5)CC4)CC3)ccc12 (centres unmarked) [ICT-0001278, 3-(1-{[3-(5-{[1-(2-{4-[3-(2,6-dioxopiperidin-3-yl)-1-methyl-4-oxo-3,4-dihydropthalazine-6-yl]piperazine-1-yl}ethyl)piperidine-4-day]methoxy}pyrimidine-2-yl)phenyl]methyl}6-oxo-1,6-dihydropyridazine-3-yl)benzonitrile]
17 |  |  |  | < 100 | Cc1nn(C2CCC(=O)NC2=O)c(=O)c2cc(N3CCN(c4ccc(NCC(=O)N5CCC(COc6cnc(-c7cccc(Cn8nc(-c9cccc(C#N)c9)ccc8=O)c7)nc6)CC5)cc4)CC3)ccc12 (centres unmarked) [ICT-0001262, 3-(1-(3-(5-((1-((4-(4-(3-(2,6-dioxopiperidin-3-yl)-1-methyl-4-oxo-3,4-dihydropthalazine-6-yl)piperazine-1-yl)phenyl)glycy)piperidine-4-il)methoxy)pyrimidine-2-yl)benzyl)6-oxo-1,6-dihydropyridazine-3-yl)benzonitrile]
18 | < 100 | < 100 |  |  | N#Cc1cccc(-c2ccc(=O)n(Cc3cccc(-c4ncc(OCC5CCN(CCN6CCN(c7ccc(NC8CCC(=O)NC8=O)cc7F)CC6)CC5)cn4)c3)n2)c1 (centres unmarked) [ICT-0001433, 3-(1-(3-(5-((1-(1-(2-(4-((2,6-dioxopiperidine-3-yl)amino)-2-fluorophenyl)piperazine-1-il)ethyl)piperidine-4-il)methoxy)pyrimidine-2-yl)benzyl)6-oxo-1,6-dihydropyridazine-3-yl)benzonitrile]
19 |  |  |  | < 100 | N#Cc1cccc(-c2ccc(=O)n(Cc3cccc(-c4ncc(OCC5CCN(CC(=O)NCCCC#Cc6ccc7c(=O)n(C8CCC(=O)NC8=O)ncc7c6)CC5)cn4)c3)n2)c1 (centres unmarked) [ICT-0001205]
20 |  |  |  | < 100 | Cc1nn(C2CCC(=O)NC2=O)c(=O)c2ccc(N3CCC(CN4CCN(CC(=O)N5CCC(COc6cnc(-c7cccc(Cn8nc(-c9cccc(C#N)c9)ccc8=O)c7)nc6)CC5)CC4)CC3)cc12 (centres unmarked) [ICT-0001213]

Row | SMILES | DC50 (c-MET [1]) [nM] | DC50 (c-MET [2]) [nM] | IC50 (MKN-45) [nM] | DC50 (c-MET [3]) [nM]
21 | N#Cc1cccc(-c2ccc(=O)n(Cc3cccc(-c4ncc(-c5cccc(CN6CCN(c7ccc(NC8CCC(=O)NC8=O)cc7F)CC6)c5)cn4)c3)n2)c1 (centres unmarked) [ICT-0001434] | > 1000 | < 100 |  | 
